Read-outs that look alike come from different tables or passages of the source.
Key:
[1] = biological target: T1, hPDE2A (Homo sapiens, UniProt O00408); test: In vitro assay PDE2A (SPA, 3H-cGMP); format: biochemical; conditions: for Emax: read-out: hPDE2A Emax
T1 construct: made in house; host or cells: Sf9 insect cells (baculovirus)
Method: Human recombinant PDE2A (hPDE2A) was expressed in Sf9 cells using a recombinant rPDE10A baculovirus construct. Cells were harvested after 48 h of infection and the hPDE2A protein was purified by metal chelate chromatography on Ni-sepharose 6FF. Tested compounds were dissolved and diluted in 100% DMSO to a concentration 100 fold of the final concentration in the assay. Compound dilutions (0.4 μl) were added in 384 well plates to 20 μl of incubation buffer (50 mM Tris pH 7.8, 8.3 mM MgCl2, 1.7 mM EGTA). 10 μl of hPDE2A enzyme in incubation buffer was added and the reaction was started by addition of 10 μl substrate to a final concentration of 10 μM cGMP and 0.01 μCi ^3H-cGMP. The reaction was incubated for 45 minutes at room temperature. […] After sedimentation of the beads during 30 minutes the radioactivity was measured in a Perkin Elmer Topcount scintillation counter and results were expressed as cpm. For blanc values the enzyme was omitted from the reaction and replaced by incubation buffer. Control values were obtained by addition of a final concentration of 1% DMSO instead of compound.

[2] = tested on: hPDE3B; test: In vitro assay PDE3 (SPA, 3H-cAMP); format: biochemical, human; set-up: hPDE3B Emax: unit not given here; conditions: for hPDE3B pIC50: 0.4 μM cAMP substrate
[3] = biological target: hPDE10A2 (Homo sapiens, UniProt Q9Y233); test: biochemical; conditions: for IC50: 60 nM cAMP substrate, read-out: hPDE10A2 pIC50 (converted); for Emax: read-out: hPDE10A2 Emax
Method: Rat recombinant PDE10A (rPDE10A2) was expressed in Sf9 cells using a recombinant rPDE10A baculovirus construct. Cells were harvested after 48 h of infection and the rPDE10A protein was purified by metal chelate chromatography on Ni-sepharose 6FF. Tested compounds were dissolved and diluted in 100% DMSO to a concentration 100 fold of the final concentration in the assay. Human recombinant PDE10A […] was expressed in Sf9 cells using a recombinant hPDE10A baculovirus that was made and amplified in house. Cells were harvested after 72 h of infection and the hPDE10A protein was purified by metal chelate chromatography on Ni-sepharose. Compound dilutions (0.4 μl) were added in 384 well plates to 20 μl of incubation buffer (50 mM Tris pH 7.8, 8.3 mM MgCl2, 1.7 mM EGTA). […] of rPDE10A or hPDE10A enzyme in incubation buffer was added and the reaction was started by addition of 10 μl substrate to a final concentration of 60 nM cAMP and 0.008 μCi ^3H-cAMP. The reaction was incubated for 60 minutes at room temperature. […] After sedimentation of the beads during 30 minutes the radioactivity was measured in a Perkin Elmer Topcount scintillation counter and results were expressed as cpm. For blanc values the enzyme was omitted from the reaction and replaced by incubation buffer. Control values were obtained by addition of a final concentration of 1% DMSO instead of compound.

[4] = biological target: T2, PDE2A (Rattus norvegicus, UniProt Q01062); test: PDE2 occupancy by ex-vivo autoradiography with [3H]B-17a; format: in vivo; conditions: rat
T2 construct: from tissue; host or cells: rat brain striatal sections (ex vivo)
T2 sequence (Q01062 1-928): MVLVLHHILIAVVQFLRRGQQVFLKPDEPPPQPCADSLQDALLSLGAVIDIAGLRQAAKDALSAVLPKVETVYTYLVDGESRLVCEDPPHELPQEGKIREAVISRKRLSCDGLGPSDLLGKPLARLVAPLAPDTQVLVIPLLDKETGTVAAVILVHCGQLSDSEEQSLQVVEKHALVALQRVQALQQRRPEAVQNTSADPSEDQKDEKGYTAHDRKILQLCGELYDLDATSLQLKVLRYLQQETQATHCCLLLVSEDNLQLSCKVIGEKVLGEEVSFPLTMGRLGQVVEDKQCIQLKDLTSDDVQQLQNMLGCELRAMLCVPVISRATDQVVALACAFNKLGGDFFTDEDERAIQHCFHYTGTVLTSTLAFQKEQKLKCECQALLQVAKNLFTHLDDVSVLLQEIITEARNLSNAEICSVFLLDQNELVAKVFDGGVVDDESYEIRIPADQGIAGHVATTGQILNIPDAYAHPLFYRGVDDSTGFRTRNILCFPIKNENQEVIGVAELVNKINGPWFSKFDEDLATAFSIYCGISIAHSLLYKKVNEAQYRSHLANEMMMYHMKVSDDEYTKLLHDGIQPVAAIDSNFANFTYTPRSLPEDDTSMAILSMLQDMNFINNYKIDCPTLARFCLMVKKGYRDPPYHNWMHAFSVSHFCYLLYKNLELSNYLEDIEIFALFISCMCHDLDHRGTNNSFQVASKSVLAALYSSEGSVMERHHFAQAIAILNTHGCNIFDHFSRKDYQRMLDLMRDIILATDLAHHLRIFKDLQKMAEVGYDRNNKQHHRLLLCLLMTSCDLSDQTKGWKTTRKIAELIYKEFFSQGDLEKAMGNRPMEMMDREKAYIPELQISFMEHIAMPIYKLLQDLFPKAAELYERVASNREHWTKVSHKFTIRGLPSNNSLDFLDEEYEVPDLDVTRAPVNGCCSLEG
Method: PDE2 Occupancy by Test Compounds Methods
Brains were immediately removed from the skull and rapidly frozen in dry-ice cooled 2-methylbutane (−40° C.).
After thawing, sections were dried under a cold stream of air and incubated for one minute with 30 nM [^3H]B-17a in Tris-HCl (50 mM, pH7.4) containing 0.3% BSA. Brain sections from drug-treated and vehicle-treated animals were incubated in parallel. […] After incubation, the excess of [^3H]B-17a was washed off in ice-cold buffer 2 times 10 minutes, followed by a quick dip in distilled water. The sections were then dried under a stream of cold air.
Brain sections were loaded in a β-imager (Biospace, Paris) for 4 h and radioactivity emerging from delineated brain area was quantified using the Beta vision program (Biospace, Paris). Specific binding was determined as the difference between total binding in the striatum and non-specific binding in the cerebellum. Percentage receptor occupancy of the drug administered to the animal corresponded to 100% minus the percentage receptor labeled in the treated animal. For the determination of ED50-values, the percentage of receptor occupancy was plotted against dose and the sigmoidal log dose-effect curve of best fit was calculated by non-linear regression analysis, using the GraphPad Prism program.

[5] = po, read-out: PDE2 occupancy at 10 mg/kg

T1 sequence (O00408 whole entry): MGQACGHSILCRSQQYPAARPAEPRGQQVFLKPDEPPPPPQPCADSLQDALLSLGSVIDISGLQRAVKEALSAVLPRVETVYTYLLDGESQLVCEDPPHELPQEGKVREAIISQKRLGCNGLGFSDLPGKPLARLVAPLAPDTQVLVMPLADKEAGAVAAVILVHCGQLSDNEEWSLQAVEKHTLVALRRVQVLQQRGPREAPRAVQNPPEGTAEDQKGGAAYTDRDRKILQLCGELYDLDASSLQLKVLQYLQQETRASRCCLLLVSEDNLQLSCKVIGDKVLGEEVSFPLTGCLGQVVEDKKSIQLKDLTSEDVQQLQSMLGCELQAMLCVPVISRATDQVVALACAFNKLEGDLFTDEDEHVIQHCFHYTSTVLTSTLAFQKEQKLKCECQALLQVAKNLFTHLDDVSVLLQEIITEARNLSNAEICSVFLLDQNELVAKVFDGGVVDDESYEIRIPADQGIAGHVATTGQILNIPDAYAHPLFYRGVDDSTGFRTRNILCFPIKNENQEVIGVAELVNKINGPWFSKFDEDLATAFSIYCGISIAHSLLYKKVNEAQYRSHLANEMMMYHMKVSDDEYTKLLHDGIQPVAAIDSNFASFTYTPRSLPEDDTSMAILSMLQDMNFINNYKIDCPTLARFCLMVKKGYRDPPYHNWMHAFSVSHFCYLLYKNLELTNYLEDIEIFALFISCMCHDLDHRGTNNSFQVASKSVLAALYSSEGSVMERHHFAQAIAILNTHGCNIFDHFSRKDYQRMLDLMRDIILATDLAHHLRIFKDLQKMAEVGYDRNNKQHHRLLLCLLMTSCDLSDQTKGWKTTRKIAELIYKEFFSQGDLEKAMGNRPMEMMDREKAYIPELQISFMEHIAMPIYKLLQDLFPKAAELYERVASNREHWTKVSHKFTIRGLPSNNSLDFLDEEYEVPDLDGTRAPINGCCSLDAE
Sequence of hPDE10A2 (Q9Y233 267-1055): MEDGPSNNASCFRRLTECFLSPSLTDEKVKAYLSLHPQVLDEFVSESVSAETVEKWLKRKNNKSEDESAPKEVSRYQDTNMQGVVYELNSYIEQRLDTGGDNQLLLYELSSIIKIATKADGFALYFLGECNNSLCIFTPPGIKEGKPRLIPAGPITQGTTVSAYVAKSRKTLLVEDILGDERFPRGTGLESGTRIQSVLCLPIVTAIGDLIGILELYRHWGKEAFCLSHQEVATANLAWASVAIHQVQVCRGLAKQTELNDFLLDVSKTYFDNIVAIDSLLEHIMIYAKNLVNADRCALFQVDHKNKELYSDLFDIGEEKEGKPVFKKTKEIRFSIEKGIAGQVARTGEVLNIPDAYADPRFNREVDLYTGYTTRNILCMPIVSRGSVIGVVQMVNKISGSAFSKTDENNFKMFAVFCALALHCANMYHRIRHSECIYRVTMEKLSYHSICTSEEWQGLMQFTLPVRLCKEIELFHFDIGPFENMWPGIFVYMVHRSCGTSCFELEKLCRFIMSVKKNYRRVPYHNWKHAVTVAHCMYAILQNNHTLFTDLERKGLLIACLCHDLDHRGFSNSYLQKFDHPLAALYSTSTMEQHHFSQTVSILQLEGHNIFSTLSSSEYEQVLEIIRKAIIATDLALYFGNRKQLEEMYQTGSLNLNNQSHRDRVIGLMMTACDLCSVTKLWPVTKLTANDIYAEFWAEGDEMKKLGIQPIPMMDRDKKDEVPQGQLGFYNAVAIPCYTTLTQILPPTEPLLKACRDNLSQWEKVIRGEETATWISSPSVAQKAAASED

Compound	IC50 [1]	Emax [1]	hPDE3B Emax [2]	hPDE3B pIC50 [2]	IC50 [3]	Emax [3]	receptor occupancy at 10 mg/kg [4, 5]	ED50 ([4]; po, read-out: PDE occupancy ED50, route PO (oral), male Wistar rats, dose producing 50% occupancy)	receptor occupancy at 10 mg/kg ([4]; sc, read-out: PDE2 occupancy at 10 mg/kg, route SC (subcutaneous), 10 mg/kg, male Wistar rats, striatum, percentage occupancy)	receptor occupancy at 10 mg/kg ([4]; route SC (subcutaneous), 10 mg/kg, male Wistar rats, striatum, percentage occupancy, read-out: PDE2 occupancy at 10 mg/kg)
C[C@@H]1CCN(c2ncnc3ccccc23)C[C@H]1c1cc(C(F)F)nc2ncnn12 [Compound 12]	14.5 nM	100%	67	5.25	646 nM	96%	1%			
C[C@@H]1CCN(c2cccc(C(F)(F)F)n2)C[C@H]1c1cc(C(F)F)nc2ncnn12 [Compound 26]	91.2 nM	99%	80	5.43	457 nM	95%				
CC(C)Oc1cccnc1N1CC[C@@H](C)[C@H](c2cc(C(F)F)nc3ncnn23)C1.Cl [Compound 31]	257 nM	81%	27	<5	1290 nM	91%				
C[C@@H]1CCN(c2ccnc3ccccc23)C[C@H]1c1cc(C(F)F)nc2ncnn12 [Compound 42]	20.4 nM	99%	70	5.27	1230 nM	91%	-8%			
C[C@@H]1CCN(c2cccc(C#N)n2)C[C@H]1c1cc(C(F)F)nc2ncnn12 [Compound 24]	79.4 nM	100%	68	5.17	575 nM	94%				
Cc1cc([C@@H]2CN(c3nccc4ccccc34)CC[C@H]2C)n2ncnc2n1 [Compound 15]	17.4 nM	100%	69	5.21	162 nM	98%				
COc1cnc(N2CC[C@@H](C)[C@H](c3cc(C(F)F)nc4ncnn34)C2)c2ccccc12 [Compound 8]	10.7 nM	101%	73	5.22	1020 nM	97%				
FC(F)c1cc([C@H]2CC[C@H]3CC[C@@H]2N3c2c(Br)ccc3ccncc23)n2ncnc2n1 [Compound 5]	6.76 nM	100%	76	5.27	427 nM	97%				
C[C@@H]1CCN(c2nccc3ccccc23)C[C@H]1c1cc(C(F)F)nc2ncnn12 [Compound 7]	10.7 nM	101%	69	5.22	617 nM	98%		29 mg/kg	81%	
C[C@@H]1CCN(c2cc(N3CCOCC3)ccn2)C[C@H]1c1cc(C(F)F)nc2ncnn12 [Compound 27]	107 nM	100%	48	5.07	2630 nM	80%				0%
C[C@@H]1CCN(c2ccc(Cl)cn2)C[C@H]1c1cc(C(F)F)nc2ncnn12 [Compound 25]	83.2 nM	101%	45	<5	692 nM	92%				
C[C@@H]1CCN(c2nccc3ccc(F)cc23)C[C@H]1c1cc(C(F)F)nc2ncnn12 [Compound 14]	17 nM	101%	62	5.29	389 nM	98%				
COc1ccnc(N2CC[C@@H](C)[C@H](c3cc(C(F)F)nc4ncnn34)C2)c1OC.Cl [Compound 33]	166 nM	89%	40	<5	1700 nM	82%				
C[C@@H]1CCN(c2ncc(C(F)(F)F)cc2Br)C[C@H]1c1cc(C(F)F)nc2ncnn12 [Compound 19]	30.2 nM	100%	38	<5	417 nM	96%				
CCCCOc1ccnc(N2CC[C@@H](C)[C@H](c3cc(C(F)F)nc4ncnn34)C2)c1 [Compound 11]	13.8 nM	99%	99	6.02	355 nM	97%				
Cc1cccc(N2CC[C@@H](C)C(c3cc(C(F)F)nc4ncnn34)C2)n1 (some centres unmarked) [Compound 39]	145 nM	99%	58	5.13	1290 nM	87%				
C[C@@H]1CCN(c2ccc(F)cn2)C[C@H]1c1cc(C(F)F)nc2ncnn12 [Compound 36]	245 nM	100%	56	5.01	1510 nM	84%				
C[C@@H]1CCN(c2ccc(C(F)(F)F)cn2)C[C@H]1c1cc(C(F)F)nc2ncnn12 [Compound 38]	170 nM	99%	49	<5	759 nM	92%				
CC(C)Oc1cccnc1N1CC[C@H](C)[C@@H](c2cc(C(F)F)nc3ncnn23)C1.Cl [Compound 34]	2400 nM	30%	2	<5	> 10000 nM	33%				
C[C@@H]1CCN(c2ncccc2Cl)C[C@H]1c1cc(C(F)F)nc2ncnn12 [Compound 28]	110 nM	99%	50	4.96	692 nM	90%				

From patent publication US11053248B2, “[1,2,4]triazolo[1,5-a]pyrimidine compounds as PDE2 inhibitors” (Janssen Pharmaceutica NV, priority 2016, dated 2021)
